Assay results taken from US20150026842A1, “METHOD OF CONTROLLING SUDDEN DEATH SYNDROME WITH FLUTRIAFOL” (CHEMINOVA A/S, priority 2013, published 2015).

Key:
[1] = system: Sudden Death Syndrome (SDS); assay: Field trial: flutriafol applied pre-emergence to soybean for control of Sudden Death Syndrome; format: in vivo
Method: The determination of the efficacy and selectivity of flutriafol fungicide when applied pre-emergence to soybean for control of Sudden Death Syndrome (SDS) was tested in the following example:
The experiment was conducted in a Drummer silty clay loam soil with a pH of 6.8 and 3.0% organic matter. The experiment was set up as a randomized complete block with four replications. Plots were four 30 inch rows or a total of 10 ft. wide by 40 ft. long. Plot site was conventionally tilled and the trial was established on May 15, 2013, by planting NK S36-B6, a sudden death syndrome susceptible soybean variety. Seed was planted 1.5 inches deep and the seeding rate was 140,000 seeds/A. Topguard (a commercially available flutriafol SC formulation comprising 125 g/l) was applied at planting in-furrow in a 3-5 inch T-band perpendicular to the row with Teejet 4001E nozzles in a spray volume of 2 GPA. Topguard rates applied were 0.13, 0.195, 0.26 lb ai/acre (corresponding to 145.7, 218.6, 291.4 g ai/ha, respectively). These correspond to rates of 16, 24, or 32 fl oz of product/acre, respectively. One treatment of a 3-5 inch band of 32 fl oz/A Topguard was applied on May 21 as an ‘At Cracking’ application immediately prior to crop emergence. Trial was inoculated with SDS on sterile sorghum media that was applied in-furrow with a gandy box at planting at a rate of 25 ml per 20 ft of row. Data was collected from the two center rows from each plot.
Drip irrigation was installed so the trial had no moisture stress throughout the season. On August 12, 19 and 30, soybean sudden death syndrome (SDS) incidence (0-100%) and severity (0-9) were evaluated. An SDS disease index (SDS DX) was created by multiplying the % Incidence by the % Severity and dividing by 9. Soybeans were harvested on October 10 and yields were calculated and adjusted to bu/A at 13% moisture.

Fusarium virguliforme = assay: Mycelial colony growth of Fusarium virguliforme on flutriafol-amended PDA; format: cell-based
Method: Inhibition of Fusarium virguliforme was tested in the following example:
The flutriafol composition used in the example was TOPGUARD (125 g/L flutriafol SC). Each pathogen was grown out on fresh potato dextrose agar (commercial PDA), assessed and used to seed 2× autoclaved rice for inoculums development. At 7-10 days, two infested rice grains of each pathogen (2 per pathogen type) was placed at equal distances on flutriafol-amended PDA and incubated at 27-29° C. Mycelial colony diameter from each rice grain was measured at 1, 3, 5 and 7 days from grain placement. The included tables and data sets illustrate the differences in mycelia growth in response to various concentrations of the fungicide for one of the SDS pathogen types, Fusarium virguliforme.

[2] = applied in a T-Band, August 12 and August 19

OC(Cn1cncn1)(c1ccc(F)cc1)c1ccccc1F (racemic) [flutriafol, (RS)-2,4′-difluoro-α-(1H-1,2,4-triazol-1-ylmethyl)benzhydryl alcohol]
soybean yield ([1]; T-band at 16, 24 or 32 oz/A, compared to the 'At Cracking' application and the untreated check): trend to higher soybean yield
Disease Index scores [1, 2]: numerically lower
SDS Incidence [1, 2]: numerically lower
Dia (mm) 1 day (Fusarium virguliforme; 0.01 ppm in PDA): 0 mm
Dia (mm) 3 days (Fusarium virguliforme; 0.01 ppm in PDA): 10.4 mm
Dia (mm) 5 days (Fusarium virguliforme; 0.01 ppm in PDA): 15.6 mm
Dia (mm) 7 days (Fusarium virguliforme; 0.01 ppm in PDA): 19.6 mm
Dia (mm) 1 day (Fusarium virguliforme; 0.1 ppm in PDA): 0 mm
Dia (mm) 3 days (Fusarium virguliforme; 0.1 ppm in PDA): 10.1 mm
Dia (mm) 5 days (Fusarium virguliforme; 0.1 ppm in PDA): 16.4 mm
Dia (mm) 7 days (Fusarium virguliforme; 0.1 ppm in PDA): 19.8 mm
Dia (mm) 1 day (Fusarium virguliforme; 1 ppm in PDA): 0 mm
Dia (mm) 3 days (Fusarium virguliforme; 1 ppm in PDA): 9.6 mm
Dia (mm) 5 days (Fusarium virguliforme; 1 ppm in PDA): 15.3 mm
Dia (mm) 7 days (Fusarium virguliforme; 1 ppm in PDA): 20 mm
Dia (mm) 1 day (Fusarium virguliforme; 10 ppm in PDA): 0 mm
Dia (mm) 3 days (Fusarium virguliforme; 10 ppm in PDA): 7.5 mm
Dia (mm) 5 days (Fusarium virguliforme; 10 ppm in PDA): 13.9 mm
Dia (mm) 7 days (Fusarium virguliforme; 10 ppm in PDA): 18.1 mm
Dia (mm) 1 day (Fusarium virguliforme; 100 ppm in PDA): 0 mm
Dia (mm) 3 days (Fusarium virguliforme; 100 ppm in PDA): 0 mm
Dia (mm) 5 days (Fusarium virguliforme; 100 ppm in PDA): 0 mm
Dia (mm) 7 days (Fusarium virguliforme; 100 ppm in PDA): 3 mm
Dia (mm) 1 day (Fusarium virguliforme; 250 ppm in PDA, 27-29° C.): 0 mm
Dia (mm) 3 days (Fusarium virguliforme; 250 ppm in PDA): 0 mm
Dia (mm) 5 days (Fusarium virguliforme; 250 ppm in PDA): 0 mm
Dia (mm) 7 days (Fusarium virguliforme; 250 ppm in PDA): 0 mm
